Values quoted from earlier work in US8790626B2, “Method for treating hair growth disorders, such as female pattern alopecia, and compositions useful therefore” (The University of Kentucky, priority 2005, dated 2014).

Columns and labels:
[1] = Jacobson, et al., 2005
[2] = U.S. Pat. No. 6,924,299

Row | SMILES | Epidermal differentiation and skin barrier integrity [1] | Blood flow and oxygen delivery to tissue [2]
1 | CCCCCCCCCCCCCCOC(=O)c1cccnc1 [Myristyl nicotinate, myristyl nicotinate] | promote epidermal differentiation leading to strong enhancement of skin barrier integrity | 
2 | CCCCCCCCOC(=O)c1cccnc1 [octyl nicotinate] |  | stimulates blood flow and oxygen delivery to tissue
